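Interpolation was linear, between the two tested concentrations surrounding the appropriate level; five concentrations were tested over 48 hours in 96-well plates. At the TGI there is no net growth.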
Experiments:
Experiment in all cases: NCI-60 cell line screen, 48 h
786-0 renal = system: 786-0 renal
K-562 leukemia = system: K-562 leukemia
NCI-H460 lung = system: NCI-H460 lung
HS 578T breast = system: HS 578T breast
SK-MEL-2 melanoma = system: SK-MEL-2 melanoma
SNB-19 CNS = system: SNB-19 CNS
M14 melanoma = system: M14 melanoma
NCI-H522 lung = system: NCI-H522 lung
SW-620 colon = system: SW-620 colon
U251 CNS = system: U251 CNS

Row | Structure (SMILES) | TGI (786-0 renal) | TGI (K-562 leukemia) | TGI (NCI-H460 lung) | TGI (HS 578T breast) | TGI (SK-MEL-2 melanoma) | TGI (SNB-19 CNS) | TGI (M14 melanoma) | TGI (NCI-H522 lung) | TGI (SW-620 colon) | TGI (U251 CNS)
1 | O=C1Cc2c(-c3ccccc3)cc(-c3ccc(Cl)cc3)nc2-c2ccccc2N1 | 3.51 µM | > 100 µM | 11.5 µM | 11.8 µM | 49.4 µM | 6.35 µM | > 70.4 µM | 12.8 µM | > 47.6 µM | 10.5 µM
2 | O=C(NCc1ccc(Cl)c(Cl)c1)c1nc2ccccc2nc1NCc1ccc(Cl)c(Cl)c1 | > 100 µM | > 100 µM | > 100 µM | > 100 µM | > 100 µM | > 100 µM | > 100 µM | > 100 µM | > 100 µM | > 100 µM
3 | CC(=O)OC/C=C/Cn1nc(Br)c(=O)[nH]c1=O | > 100 µM | > 100 µM | > 100 µM | > 100 µM | > 100 µM | > 100 µM | > 100 µM | > 100 µM | > 100 µM | > 100 µM
4 | N#Cc1c2c(c(Nc3ccc(Cl)cc3)n3c1nc1ccccc13)CCCC2 | > 100 µM | > 100 µM | > 100 µM | > 87.4 µM | > 100 µM | > 64.2 µM | > 100 µM | > 100 µM | > 100 µM | > 65.4 µM
5 | CN1Cc2c(ccc3c2OCO3)[C@@H]2[C@H](O)Cc3cc4c(cc3[C@@H]21)OCO4 | > 75 µM | > 100 µM | > 100 µM | > 100 µM | > 27.1 µM | > 26.5 µM | > 28.4 µM | 14.6 µM | > 100 µM | > 25.1 µM
6 | CC(C)(C)OC(=O)NCCCCC1NC(=O)[C@@H]2Cc3c([nH]c4ccccc34)C(c3ccccc3)N2C1=O (stereo not given in full) | 82.3 µM | > 100 µM | > 100 µM | 49.6 µM | 50.5 µM | > 100 µM | 92.3 µM | > 100 µM | > 100 µM | > 100 µM
7 | COc1cc(CC2C(=O)OCC2Cc2ccc(OC)c(OC)c2)ccc1O (stereo not given) | > 100 µM | > 100 µM | > 100 µM | > 100 µM | > 100 µM | > 100 µM | > 100 µM | > 100 µM | > 100 µM | > 100 µM
8 | O=C(CCc1ccccc1)NCCc1ccc(O)c(O)c1 | > 82.2 µM | 22.4 µM | > 100 µM | > 100 µM | 49.5 µM | > 100 µM | > 100 µM | 44 µM | > 100 µM | > 100 µM
9 | CCOC(=O)c1ccc(-c2cccs2)[nH]1 | > 100 µM | > 100 µM | > 100 µM | > 100 µM | > 100 µM | > 100 µM | > 100 µM | > 100 µM | > 100 µM | > 100 µM
10 | CO[C@@H](c1ccccc1)[C@H](O)[C@@](O)(c1ccccc1)P(=O)(OC)OC | > 100 µM | > 100 µM | > 100 µM | > 100 µM | > 100 µM | > 100 µM | > 100 µM | > 100 µM | > 100 µM | > 100 µM
11 | O=P1(C(O)c2ccccc2)N(Cc2ccccc2)[C@@H]2CCCC[C@H]2N1Cc1ccccc1 (stereo not given in full) | 47.9 µM | > 100 µM | > 100 µM | 45.5 µM | 73.7 µM | > 100 µM | 58.5 µM | 63.6 µM | > 100 µM | > 100 µM
12 | CCOC(=O)C(NC(=O)c1cccc(Cl)c1)(N1CCN(c2cc3c(cc2F)c(=O)c(C(=O)O)cn3CC)CC1)C(F)(F)F (stereo not given) | 30.9 µM | 52 µM | 81.2 µM | 44.8 µM | 31.1 µM | > 100 µM | 31.9 µM | 16.4 µM | 29.4 µM | 20.9 µM
13 | O=C1c2sccc2C(=O)c2c(CO)csc21 | 18.5 µM | > 100 µM | 6.96 µM | 33.7 µM | 8.63 µM | 20.8 µM | 7.55 µM | 13.6 µM | > 86.5 µM | 23.2 µM
14 | COc1c(-c2nc3nc(N4CCN(C)CC4)ccc3[nH]2)cc(OC)c2c1nc(CCl)n2C | > 100 µM | > 100 µM | 52.8 µM | > 100 µM | 29.3 µM | > 100 µM | 33.7 µM | 25.5 µM | 64.3 µM | 25.8 µM
15 | CO/C(N)=C(\C#N)N=Cc1cccs1 | > 100 µM | > 100 µM | > 100 µM | > 100 µM | > 100 µM | > 100 µM | > 100 µM | 79.6 µM | > 100 µM | > 100 µM
16 | N=c1sc(N2CCOCC2)nn1CC(=O)c1ccccc1 | > 100 µM | > 100 µM | > 100 µM | > 100 µM | > 100 µM | > 100 µM | > 100 µM | > 100 µM | > 100 µM | > 100 µM
17 | CCN(CC)CCCNc1nnc(C)c2[nH]c3ccccc3c12 | 94 µM | > 100 µM | 30.9 µM | 38 µM | 33.3 µM | > 100 µM | 32.4 µM | 21.3 µM | > 100 µM | > 100 µM

Row | Structure (SMILES) | TGI (786-0 renal) | TGI (K-562 leukemia) | TGI (NCI-H460 lung) | TGI (HS 578T breast) | TGI (SK-MEL-2 melanoma) | TGI (SNB-19 CNS) | TGI (M14 melanoma) | TGI (NCI-H522 lung) | TGI (SW-620 colon) | TGI (U251 CNS)
18 | CNC(=O)N(C)C(=O)c1ccccc1C(=O)N(C)C(=O)NC | > 10 µM | > 10 µM | > 10 µM | > 10 µM | > 10 µM | > 10 µM | > 10 µM | > 10 µM | > 10 µM | > 10 µM
19 | CCCCN1/C(=N/Nc2n[nH]c(=O)c3ccccc23)SCC1c1ccc(Cl)cc1 (stereo not given) | 42.2 µM | > 100 µM | 24.8 µM | 56.2 µM | 56.4 µM | 42 µM | 19.5 µM | 37.1 µM | 53 µM | 21.2 µM
20 | CCCCCCCCCCCCCCCC(=O)OCC(COP(=O)(O)OCCNC(=O)CCSSc1ccccn1)OC(=O)CCCCCCCCCCCCCCC (stereo not given) | > 100 µM | > 100 µM | > 100 µM | > 100 µM | > 100 µM | > 100 µM | > 100 µM | > 100 µM | > 100 µM | > 100 µM
21 | CCOC(=O)C1(NC(=O)OC(C)(C)C)CCc2[nH]oc(=O)c2C1 (stereo not given) | > 100 µM | > 100 µM | > 100 µM | > 100 µM | > 100 µM | > 100 µM | > 100 µM | > 100 µM | > 100 µM | > 100 µM
22 | CC1=C(C(=O)OC(C)(C)C)C(c2ccc([N+](=O)[O-])cc2)C(C(=O)OC(C)(C)C)=C(C)N1 | 38.7 µM | 54 µM | 38.6 µM | 43.4 µM | 46.6 µM | 75.8 µM | 47.6 µM | 36.4 µM | 54 µM | 39.3 µM
23 | COc1ccc(/[N+]([O-])=C/c2ccccc2OC(=S)S)cc1 | 65.5 µM | > 100 µM | > 100 µM | > 100 µM | 65.7 µM | > 100 µM | 91.5 µM | 74 µM | > 100 µM | > 100 µM
24 | O=C(Cn1c(-c2ccccc2)cc2ccccc21)N1CCOCC1 | > 100 µM | > 100 µM | > 100 µM | > 100 µM | > 100 µM | > 100 µM | > 100 µM | > 100 µM | > 100 µM | > 100 µM
25 | Nc1c(/C=C/c2cc3cc(C4=NCCN4)ccc3o2)[nH]c2cc(C3=NCCN3)ccc12 | > 100 µM | > 100 µM | > 100 µM | > 100 µM | > 100 µM | > 100 µM | > 100 µM | > 100 µM | > 100 µM | > 100 µM
26 | N#Cc1c(N)n(-c2nc3ccccc3s2)c(=O)c2cc([N+](=O)[O-])ccc12 | > 66.3 µM | 38.6 µM | > 65.8 µM | 36.9 µM | 40.3 µM | > 77.1 µM | > 55 µM | 25.6 µM | > 100 µM | > 100 µM
27 | COC(=O)C1CCC(=S)N1C(C)=O (stereo not given) | > 100 µM | > 100 µM | > 100 µM | > 100 µM | > 100 µM | > 100 µM | > 100 µM | > 100 µM | > 100 µM | > 100 µM
28 | CC(=O)OCc1cc2c(s1)C(=O)c1sccc1C2=O | 1.84 µM | > 100 µM | 0.322 µM | 0.422 µM | 0.249 µM | 0.317 µM | < 0.0189 µM | 0.295 µM | 0.268 µM | 0.706 µM
29 | Cc1nnc(N)s/c1=N/O | > 100 µM | > 100 µM | > 100 µM | > 100 µM | > 100 µM | > 100 µM | > 100 µM | > 100 µM | > 100 µM | > 100 µM
30 | COC(=O)c1ccccc1NCc1cc(O)ccc1O | 31.7 µM | > 59 µM | > 31.6 µM | 61.5 µM | 58.3 µM | > 74.1 µM | 17.1 µM | 6.75 µM | 52 µM | 40.1 µM
31 | CNc1nc(OC)c2c(n1)[n+](C)cn2C | > 100 µM | > 100 µM | > 100 µM | > 100 µM | > 100 µM | > 100 µM | > 100 µM | > 100 µM | > 100 µM | > 100 µM
32 | Cc1c(Cl)cc(C(C)(C)C)c(O)c1Cc1c(C)c(Cl)cc(C(C)(C)C)c1O | 4.57 µM | 5.1 µM | 5.03 µM | 3.61 µM | 3.9 µM | 12.5 µM | 7.85 µM | 1.18 µM | 6.45 µM | 7.97 µM
33 | CC(=O)Oc1c(OC(C)C)cc(=O)n2ccsc12 | > 100 µM | > 100 µM | > 100 µM | > 100 µM | > 100 µM | > 100 µM | > 100 µM | > 100 µM | > 100 µM | > 100 µM
